# Patent US20250091989A1, “SMALL MOLECULE PROTEIN SYNTHESIS MODULATORS” (Interdict Bio, Inc., priority 2023, published 2025)
# What was measured:
# Type in all cases: biochemical
# Settings in all cases: HeLa S3 lysate, sfGFP/mCherry ratio, 2 hrs at 30° C.
# [1] = system: ALK; experiment: In vitro transcription-translation (IVTT) reporter assay, ALK test sequence
# Procedure, shortened: (§1)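 Coupled transcription-translation in HeLa S3 lysate with reporter plasmids encoding mCherry-P2A-3×FLAG-TEST-sfGFP behind an EMCV IRES. Compounds were half-log titrated (30 μM-0.1 μM in DMSO dilution plate) into master mix, then DNA was added. Reactions ran 2 hrs at 30° C, were PBS-quenched and read for fluorescence.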
# [2] = system: MYC; experiment: In vitro transcription-translation (IVTT) reporter assay, MYC test sequence
# Procedure, shortened: as §1
# [3] = system: KRAS G12D; experiment: In vitro transcription-translation (IVTT) reporter assay, KRAS G12D test sequence
# Procedure, shortened: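 Compounds, half-log titrated 30 μM-0.1 μM in DMSO, were mixed with HeLa S3 lysate master mix and plasmid DNA, then incubated 2 h at 30 °C before PBS quench. Each construct fuses the CCND1, KRAS G12D, MCL-1 or BCL-2 sequence between 3×FLAG and sfGFP, downstream of mCherry-P2A.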
# [4] = system: CCND1; experiment: In vitro transcription-translation (IVTT) reporter assay, CCND1 test sequence
# Source text: (§2) All reporter constructs have been cloned into the pT7CFE1-CHis plasmid (ThermoFisher #88860) using Gibson assembly procedures (NEB #E2611L). The parental pT7CFE1-CHis plasmid contains an EMCV IRES at the 5′UTR for translation initiation, a multiple-cloning site (MCS) for gene insertion, an optional C-terminal His-epitope tag, and polyA sequence in the 3′UTR to regulate mRNA stability. All reporters are designed to be inserted at the MCS to include a red fluorescent protein (mCherry), P2A self-cleaving peptide which releases the preceding mCherry protein product, and a fusion open reading frame containing a 3×FLAG epitope, a peptide sequence of interest (TEST), and green fluorescent protein (sfGFP).
# (§3) Construct Plasmid Preparation: All plasmids are isolated from MACH1 cells (ThermoFisher) grown overnight in ampicillin-containing luria broth, and purified using ZymoPure Express Plasmid Midiprep Kit (Zymo Research). Constructs are sequenced verified and diluted to a working concentration of 110 ng/μL.
# (§4) HeLa S3 Lysate Preparation: HeLa S3 cell pellets are acquired from Ipracell/Ipratech (Belgium) and shipped as 4 mL frozen cell pellets on dry ice for storage at −80° C. until use. The procedure for lysate preparation is as follows. Prepare 1× Lysis Buffer, cold and stored on ice:
# (§5) Each preparation takes 8 cell pellets (4 ml packed volume each, approximately 1.0×10^9 cells per pellet). Thaw cell pellets from −80° C. on ice for 90 mins. Lay pellets horizontally on top of the ice and rotate every 30 mins to ensure even thawing. Once thawed, add 4 mL of cold lysis buffer to each pellet, and using a serological pipet, gently pipet up and down to break up clumps. Incubate resuspended cells in ice for an additional 30 mins (plunged into ice). During 30 min incubation, rinse and RNase-zap (Ambion) glass dounces (use loose pestle “A”), gently dry and place on ice until needed. Prepare RNase-free Eppendorf tubes for spinning and for batch storage. Add batch labels to 1.5-1.7 mL RNase-free microcentrifuge tubes (labeling scheme below). Each batch will have an extra 1.5-1.7 mL RNase-free microcentrifuge tube for 40 μL of lysate, label the top of this tube (labeling scheme below). After 30 min incubation, transfer all 8 mL of cell pellet to dounce. Cell lysis is complete after douncing 100 times. Aliquot cell lysis into 1.5-1.7 mL temporary-microcentrifuge tubes. Place tubes in centrifuge with “fins” out, and spin at 1,200 xg for 5 mins. After the first spin use a 1 mL pipet to resuspend each tube and repeat spin. This acts as an additional lysis step, is more vigorous and increases lysate yield. During second spin get liquid N2 and a fresh conical tube on ice.
# (§6) After spin is complete, transfer supernatant (lysate) from microcentrifuge tubes into the 50 mL conical tube and keep on ice. Repeat steps 10-14 for all other cell pellets until completed. Once all cell lysate has been transferred to the 50 mL conical tube pipet to mix so the solution is homogenous. Transfer 1 mL of lysate into batch-labeled microcentrifuge tubes and flash freeze in liquid nitrogen. Be sure to pipet up and down to mix throughout transfer step. Place all tubes in the […] for long-term storage.
# (§7) In vitro transcription-translation assay setup: Each assay includes a master mix containing lysate and shared components, a 96-well plate containing compound titrations for testing, a 96-well DNA plate with reporter constructs to be tested, 96-well skirted PCR plates, and 96-well flat-bottom, black, fluorescent assay plates. […]
# [5] = system: BCL-2; experiment: In vitro transcription-translation (IVTT) reporter assay, BCL-2 test sequence
# Source text: as §2, §3, §4, §5, §6, §7
# [6] = system: MCL-1; experiment: In vitro transcription-translation (IVTT) reporter assay, MCL-1 test sequence
# Source text: as §2, §3, §4, §5, §6, §7
SMILES,IC50 [1] [µM],IC50 [2] [µM],IC50 [3] [µM],IC50 [4] [µM],IC50 [5] [µM],IC50 [6] [µM]
CC(=O)O[C@@H]1[C@@H](O)CN[C@@H]1Cc1ccc(-c2cn(Cc3ccccc3)nn2)cc1 [V187750],< 10,< 10,< 10,< 10,–,–
"COc1ccc(C[C@H]2NC[C@H](O)[C@H]2OC(=O)CC(F)(F)F)cc1 [V187162, (2R,3S,4S)-4-hydroxy-2-[(4-methoxyphenyl)methyl]pyrrolidin-3-yl 3,3,3-trifluoropropanoate; trifluoroacetic acid]",< 10,< 10,< 10,< 10,–,–
"COc1ccc(C[C@H]2NC[C@H](O)[C@H]2OC(=O)CCc2cocn2)cc1 [V187176, (2R,3S,4S)-4-hydroxy-2-[(4-methoxyphenyl)methyl]pyrrolidin-3-yl 3-(1,3-oxazol-4-yl)propanoate; trifluoroacetic acid]",–,< 10,< 10,< 10,–,–
CC(=O)O[C@@H]1[C@@H](O)CN[C@@H]1Cc1ccc(-c2cn(-c3ccc(C(F)(F)F)cc3)nn2)cc1 [V187840],–,< 10,–,< 10,< 10,< 10
COc1ccc(C[C@H]2NC[C@H](O)[C@H]2OC(C)=O)cc1I [V188005],–,> 30,–,> 30,> 30,> 30
COc1ccc(C[C@H]2NC[C@H](O)[C@H]2OC(C)=O)cc1F [V187569],–,< 10,–,< 10,–,< 10
COc1ccc(C[C@H]2NC[C@H](O)[C@H]2OC(C)=O)cc1C#N [V188045],–,> 30,–,> 30,–,> 30
CC(=O)O[C@@H]1[C@@H](O)CN[C@@H]1Cc1ccc(-c2nnn(Cc3ccccc3)c2Cl)cc1 [V187856],–,< 10,–,< 10,< 10,< 10
CC(=O)O[C@@H]1[C@@H](O)CN[C@@H]1Cc1ccc(-c2cn(-c3cccnc3)nn2)cc1 [V187751],–,< 10,–,< 10,< 10,< 10
COc1ccc(C[C@H]2NC[C@H](O)[C@H]2OC(=O)CCCCCO)cc1 [V186777],< 10,< 10,< 10,< 10,–,–
CC(=O)O[C@@H]1[C@@H](O)CN[C@@H]1Cc1ccc(-c2cn(C3CCOCC3)nn2)cc1 [V187838],–,< 10,–,< 10,< 10,< 10
"COc1ccc(C[C@H]2NC[C@H](O)[C@H]2OC(=O)Cc2ccccn2)cc1 [V187082, (2R,3S,4S)-4-hydroxy-2-[(4-methoxyphenyl)methyl]pyrrolidin-3-yl 2-(pyridin-2-yl)acetate]",< 10,< 10,< 10,< 10,–,–
CC(=O)O[C@@H]1[C@@H](O)CN[C@@H]1Cc1ccc(-c2nn[nH]c2Cl)cc1 [V187854],–,< 10,–,< 10,< 10,< 10
"COc1ccc(C[C@H]2NC[C@H](O)[C@H]2OC(=O)Cc2ccc(Cl)cc2)cc1 [V187055, (2R,3S,4S)-4-hydroxy-2-[(4-methoxyphenyl)methyl]pyrrolidin-3-yl 2-(4-chlorophenyl)acetate; trifluoroacetic acid]",–,< 10,< 10,< 10,–,< 10
CC(=O)O[C@@H]1[C@@H](O)CN[C@@H]1Cc1ccc(-c2nnn(C)c2Cl)cc1 [V187855],–,< 10,–,< 10,< 10,< 10
COc1ccc(C[C@H]2NC[C@H](O)[C@H]2OC(C)=O)cc1Cl [V188046],–,< 10,–,< 10,–,< 10
COc1ccc(C[C@H]2NC[C@H](O)[C@H]2OC(=O)CNC2CC(F)(F)C2)cc1 [V187172],< 10,< 10,< 10,< 10,–,–
"COc1ccc(C[C@H]2NC[C@H](O)[C@H]2OC(=O)CCNC(C)C)cc1 [V187155, (2R,3S,4S)-4-hydroxy-2-[(4-methoxyphenyl)methyl]pyrrolidin-3-yl 3-(isopropylamino)propanoate; trifluoroacetic acid]",10 to 20,> 30,> 30,< 10,–,–
COc1ccc(C[C@H]2NC[C@H](O)[C@H]2OC(C)=O)cc1Br [V187263],–,> 30,–,20 to 30,20 to 30,20 to 30
"CC(=O)O[C@@H]1[C@@H](O)CN[C@@H]1Cc1ccc([N+](=O)[O-])cc1 [V188168, (2R,3S,4S)-4-hydroxy-2-[(4-nitrophenyl)methyl]pyrrolidin-3-yl acetate]",–,< 10,–,< 10,–,< 10
"COc1ccc(C[C@H]2NC[C@H](O)[C@H]2OC(=O)Cc2cnccn2)cc1 [V187088, (2R,3S,4S)-4-hydroxy-2-[(4-methoxyphenyl)methyl]pyrrolidin-3-yl 2-(pyrazin-2-yl)acetate]",< 10,< 10,< 10,< 10,–,–
"COc1ccc(C[C@H]2NC[C@H](O)[C@H]2OC(=O)C2CCC2)cc1 [V186921, (2R,3S,4S)-4-hydroxy-2-[(4-methoxyphenyl)methyl]pyrrolidin-3-ylcyclobutanecarboxylate; trifluoroacetic acid]",–,< 10,< 10,< 10,–,–
"COc1ccc(C[C@H]2NC[C@](C)(O)[C@H]2OC(C)=O)cc1 [V188182, (2R,3S,4S)-4-hydroxy-2-[(4-methoxyphenyl)methyl]-4-methylpyrrolidin-3-yl acetate]",–,> 30,–,–,–,> 30
"COc1ccc(C[C@H]2NC[C@H](O)[C@H]2OC(=O)Cc2cc(Br)cs2)cc1 [V187070, (2R,3S,4S)-4-hydroxy-2-[(4-methoxyphenyl)methyl]pyrrolidin-3-yl 2-(4-bromothiophen-2-yl)acetate]",–,< 10,< 10,< 10,–,< 10
CC(=O)O[C@@H]1[C@@H](O)CN[C@@H]1Cc1ccc(-c2cn(-c3ccc(Cl)cc3)nn2)cc1 [V187839],–,< 10,–,< 10,< 10,< 10
"COc1ccc(C[C@H]2NC[C@H](O)[C@H]2OC(=O)CNC2CC2)cc1 [V187170, (2R,3S,4S)-4-hydroxy-2-[(4-methoxyphenyl)methyl]pyrrolidin-3-yl 2-(cyclopropylamino)acetate]",< 10,< 10,–,< 10,–,–
COCCC(=O)OC1[C@@H](O)CN[C@@H]1Cc1ccc(OC)cc1 (some centres unmarked) [V187168],< 10,< 10,–,< 10,–,–
"COc1ccc(C[C@H]2NC[C@H](O)[C@H]2OC(=O)CC2NC(=O)CNC2=O)cc1 (stereo partly drawn) [V186862, (2R,3S,4S)-4-hydroxy-2-[(4-methoxyphenyl)methyl]pyrrolidin-3-yl 2-(3,6-dioxopiperazin-2-yl)acetate]",< 10,< 10,> 30,> 30,–,–
"COc1ccc(C[C@H]2NC[C@H](O)[C@H]2OC(=O)CC(C)C)cc1 [V187035, (2R,3S,4S)-4-hydroxy-2-[(4-methoxyphenyl)methyl]pyrrolidin-3-yl 3-methylbutanoate]",< 10,< 10,< 10,< 10,–,< 10
